Assay results as given in patent US4358607A, “Chloro-substituted benzospiro cyclopropane carboxylic acid” (American Cyanamid Co., priority 1978, dated 1982).
Where “and” joins values, the source holds several entries; their conditions need not be identical. Equal entries are not always repeated.

How the values were obtained:
Assay type in all cases: in vivo
Boophilus microplus = assay: Control of Ixodidae: engorged adult female ticks, reduction in viable egg masses
Procedure: The compound to be tested is dissolved in a 35% acetone/65% water mixture in amounts sufficient to provide the concentrations indicated in Table I below. Ten ticks per treatment are used and they are immersed in the test solution for three to five minutes, then removed and held in incubators for two to three weeks at 28° C. Counts of ticks laying eggs are then made and recorded. Eggs which were laid are placed in containers and kept for one month to observe hatching and to determine chemosterilant effect.
Percent reduction in viable egg masses is believed to be indicative of one or more of the following mechanisms:
2. Suppression of fecundity.
3. Chemosterilant effect.

[1] = system: Western Potato Leaf Hopper (Empoasca abrupta); assay: Western Potato Leaf Hopper test; conditions: 2 days
Description: Western Potato Leaf Hopper (Empoasca abrupta DeLong)
A lima bean plant with the primary leaf expanded to 7.6 to 10 cm is dipped into a 100 ppm solution and set in a hood to dry. A 2.5 cm piece of the tip of 1 leaf is cut off and placed in a 10 cm petri dish with a moist filter paper in the bottom. (In practice, this is usually cut off the tip of a plant from the Mexican bean beetle tests using a bean leaf dipped in the needed solution). From 3 to 10 second-instar nymphs are tapped from the culture plants into the test dish and rapidly covered. Mortality counts are made after two days at 26.7° C.
(§1) The rating system employed in these tests is as follows:
(§2) Compounds rated active (8 or 9) are further tested at reduced concentrations in 50% acetone: 50% water.

[2] = system: Malaria Mosquito (Anopheles quadrimaculatus) adult; assay: Malaria Mosquito Adult Test; conditions: 1 day
Procedure: Malaria Mosquito (Anopheles quadrimaculatus Say) Adult Test
Ten ppm solutions are poured into wide-mouth 46.2 ml jars each containing a microscope slide. The slides are removed from the test solution with forceps and laid horizontally to dry on a wide-mouth 118.4 ml bottle. When dry, they are placed in the same 118.4 ml bottle and ten 4 to 5-day old mosquitoes of mixed sexes are added to each bottle. A piece of cotton gauze held on by an elastic band serves as a lid and a wad of cotton soaked in 10% honey solution serves as food. Mortality counts are made after 1 day at 26.7° C.
as §1, §2

Bean Aphid (Aphid fabae) = assay: Bean Aphid test; conditions: 1 day
Procedure: Bean Aphid (Aphid fabae Scopoli).
Five cm fiber pots, each containing a nasturtium plant 5 cm high and infested with 100 to 500 aphids 2 days earlier are placed on a 4 rpm turntable and sprayed with a 100 ppm solution of 2 revolutions with a No. 154 DeVilbiss Atomizer at 1.4 kg/cm^2 air pressure. The spray tip is held about 15 cm from the plants and the spray directed so as to give complete coverage of the aphids and the plants. The sprayed plants are laid on their sides on white enamel trays. Mortality estimates are made after 1 day at 26.7° C.
as §1, §2

[3] = system: Tobacco Budworm [Heliothis virescens] third instar; assay: Tobacco Budworm third instar test; conditions: 3 days
Procedure: Tobacco Budworm [Heliothis virescens (Fabricius)]. Third instar. Three cotton plants with just expanded cotyledons are dipped in a 1000 ppm solution, and placed in a hood to dry. When dry, each cotyledon is cut in half and 10 are each placed in a 29.6 ml plastic medicine cup containing a 1.25 cm dental wick saturated with water, and one third-instar budworm larva is added. The cup is capped and held for 3 days at 26.7° C., after which mortality counts are made. The rating system employed in these tests is as follows: Compounds rated active (8 or 9) are further tested at reduced concentrations in 50% acetone: 50% water.

[4] = system: Cabbage Looper [Trichoplusia ni]; assay: Cabbage Looper test; conditions: 2 days
Procedure: Cabbage Looper. [Trichoplusia ni (Hubner)].
A primary leaf of a cotton plant is dipped in the test solution and agitated for 3 seconds. It is then set in a hood to dry. Following this, the leaf is placed in a 10 cm petri dish containing a moist filter paper at the bottom and 10 third-instar loopers. The dish is covered and held at 26.7° C. After 2 days, mortality counts and estimates of feeding damage are recorded. Those materials showing partial kill and/or inhibition of feeding are held for another day for further observations.
as §1, §2

[5] = system: Malaria Mosquito (Anopheles quadrimaculatus); assay: Malaria Mosquito egg and larvae test
Procedure: Malaria Mosquito (Anopheles quadrimaculatus say) egg and larvae test. One ml of a 300 ppm solution is pipetted into a 400 ml beaker containing 250 ml of deionized water and stirred with the pipette, giving a concentration of 1.2 ppm. A wax paper ring 0.6 cm wide to fit inside the beaker is floated on the surface of the test solution to keep the eggs from floating up the meniscus curve and drying out on the side of the glass. A spoon made of screen is used to scoop up and transfer about 100 eggs (0-24 hours old) into the test beaker. After two days at 26.7°C. observations of hatching are made. This includes kill of eggs or inhibition of hatch, kill of newly hatched larvae, or delayed hatch. Additional observations are made after another day for the same effects. The rating system employed in these tests is as follows: Compounds rated active (8 or 9) are further tested at reduced concentrations in 50% acetone: 50% water.

[6] = system: Tobacco Budworm [Heliothis virescens] eggs; assay: Tobacco Budworm egg test; conditions: 300 ppm, 3 days
Procedure: (§3) Tobacco Budworm [Heliothis virescens (Fabricus)].
(§4) A cotton plant with 2 true leaves expanded is dipped for 3 seconds with agitation in a 300 ppm solution. A 1.25 to 2 cm square of cheesecloth with about 50 to 100 budworm eggs 0-24 hours old is also dipped in the test solution and placed on one leaf to dry. The leaf with the treated budworm eggs is removed from the plant and placed in a 236.6 ml (8-Oz) Dixie cup with a wet 5 cm piece of dental wick and covered with a lid. The other leaf is placed in a similar cup with a wick and a piece of cheesecloth infested with 50-100 newly hatched larvae is added before covering the cup with a lid. After 3 days at 26.7° C., observations of egg hatch are made as well as kill of newly hatched larvae, any inhibition of feeding, or interference of any sort with normal development.
as §1, §2

[7] = system: Tobacco Budworm [Heliothis virescens] larvae; assay: Tobacco Budworm newly hatched larvae test; conditions: 3 days
Procedure: as §3, §4, §1, §2

[8] = system: Boophilus microplus larvae; assay: Control of Boophilus microplus larvae; conditions: Rhipicephalus microplus, 48 h, read-out: Percent Mortality of Boophilus microplus
Procedure: Twenty larvae are enclosed in a pipet sealed at one end with a gauze material, and a solution, containing the test compound at the concentrations given, is then drawn through the pipet with a vacuum hose simulating a spray system. The ticks are then held for 48 hours at room temperature, and percent mortality rates are then determined.

[9] = system: Two-Spotted Spider Mite [Tetranychus urticae]; assay: Phosphate-Resistant Strain of Two-Spotted Spider Mite test
Procedure: Phosphate-Resistant Strain of Two-Spotted Spider Mite [Tetranychus urticae (Koch)].
Sieva lima bean plants, with primary leaves 7.6 to 10 cm long, are infested with about 100 adult mites per leaf 4 hours before use in this test, in order to allow egg-laying before treatment. The infested plants are dipped for 3 seconds with agitation into a 300 ppm solution, and the plants set in the hood to dry. After 2 days at 26.7° C., the adult mite mortality is estimated on one leaf under a 10X stereoscopic microscope. The other leaf is left on the plant an additional 5 days and then examined at 10X power to estimate the kill of eggs and of newly-hatched nymphs, giving a measure of ovicidal and residual action, respectively.
as §1, §2

[10] = system: Southern Armyworm [Spodoptera eridania]; assay: Southern Armyworm test; conditions: 2 days
Procedure: Southern Armyworm [Spodoptera eridania (Cramer)].
A sieva lima bean plant with just the primary leaves expanded to 7.6 to 10 cm is dipped for 3 seconds with agitation in a 1000 ppm solution and set in a hood to dry. Following this, one leaf is placed in a 10 cm petri dish which has a moist filter paper in the bottom and 10 third-instar armyworm larvae about 1 cm long. The dish is covered and held at 26.7° C. After 2 days mortality counts and estimates of the amount of feeding are made. Compounds showing partial kill and/or inhibition of feeding are held for an extra day for further observations.
as §1, §2

[11] = system: Mexican Bean Beetle (Epilachna varivestis); assay: Mexican Bean Beetle test; conditions: 300 ppm
Description: Mexican Bean Beetle (Epilachna varivestis Mulsant)
Sieva lima bean plants (2 per pot) with primary leaves 7.6 to 10 cm long, are dipped in a 300 ppm solution and set in a hood to dry. One leaf is removed from the plant and placed in a 10 cm petri dish containing a moist filter paper on the bottom and 10 last-instar larvae (13 days from hatching).
The day after treatment, another leaf is removed from the plant and fed to the larvae after removing the remains of the original leaf. Two days after treatment, the third leaf is fed to the larvae, this usually being the last needed. The fourth leaf is used on the third day after treatment if the larvae have not finished feeding. The test is now set aside and held until adults have emerged, usually about 9 days after treatment began. After emergence is complete, each dish is examined for dead larvae, pupae or adults; deformed pupae or adults; larval-pupal intermediates or pupal-adult intermediates; or any other interference with normal molting, transformation and emergence of pupae or adults.
as §1, §2

For `CC1(C)C(C(=O)OC(C#N)c2cccc(Oc3ccccc3)c2)C12C=C(Cl)c1ccccc12` (centres unmarked) [drawing 5], the “Percent reduction in viable egg masses” value (Boophilus microplus; 125 ppm) was 98%.

`CC1(C)C(C(=O)OC(C#N)c2cccc(Oc3ccccc3)c2)C12C=C(Cl)c1ccccc12` (centres unmarked) [drawing 13] was tested, and the “Insecticidal activity rating, Leaf Hopper” value ([1]; 10 ppm) was 9 (100% mortality), the “Insecticidal activity rating, Leaf Hopper” value ([1]; 100 ppm) was 9 (100% mortality) and the “Insecticidal activity rating, Mosquito, Adult” value ([2]; 1 ppm) was 7 (71-85% mortality) and 6 (61-70% mortality) and 9 (100% mortality). For the same compound, the “Insecticidal activity rating, Mosquito, Adult” value ([2]; 10 ppm) was 9 (100% mortality), the “Insecticidal activity rating, Bean Aphids” value (Bean Aphid (Aphid fabae); 1 ppm) was 9 (100% mortality) and the “Insecticidal activity rating, Bean Aphids” value (Bean Aphid (Aphid fabae); 10 ppm) was 9 (100% mortality). For the same compound, the “Insecticidal activity rating, Bean Aphids” value (Bean Aphid (Aphid fabae); 100 ppm) was 9 (100% mortality), the “Insecticidal activity rating, Tobacco Budworm 3rd Instar” value ([3]; 100 ppm) was 0 (0-4% killed or affected) and the “Insecticidal activity rating, Tobacco Budworm 3rd Instar” value ([3]; 1000 ppm) was 5 (51-60% mortality). For the same compound, the “Insecticidal activity rating, Cabbage Looper” value ([4]; 100 ppm) was 9 (100% mortality) and the “Insecticidal activity rating, Cabbage Looper” value ([4]; 1000 ppm) was 9 (100% mortality).

With `CC1(C)C(C(=O)OCc2cccc(Oc3ccccc3)c2)C12C=C(Cl)c1ccccc12` (centres unmarked) [drawing 14] the “Insecticidal activity rating, Leaf Hopper” value ([1]; 10 ppm) was 9 (100% mortality), the “Insecticidal activity rating, Leaf Hopper” value ([1]; 100 ppm) was 9 (100% mortality) and the “Insecticidal activity rating, Mosquito, Adult” value ([2]; 10 ppm) was 0 (0-4% killed or affected). The “Insecticidal activity rating, Bean Aphids” value (Bean Aphid (Aphid fabae); 1 ppm) was 0 (0-4% killed or affected), the “Insecticidal activity rating, Bean Aphids” value (Bean Aphid (Aphid fabae); 10 ppm) was 9 (100% mortality) and the “Insecticidal activity rating, Bean Aphids” value (Bean Aphid (Aphid fabae); 100 ppm) was 9 (100% mortality). The “Insecticidal activity rating, Tobacco Budworm 3rd Instar” value ([3]; 100 ppm) was 5 (51-60% mortality), the “Insecticidal activity rating, Tobacco Budworm 3rd Instar” value ([3]; 1000 ppm) was 9 (100% mortality) and the “Insecticidal activity rating, Cabbage Looper” value ([4]; 100 ppm) was 9 (100% mortality). The “Insecticidal activity rating, Cabbage Looper” value ([4]; 1000 ppm) was 9 (100% mortality).

For `CC1(C)C(C(=O)OCc2cccc(Oc3ccccc3)c2)C12C=C(Cl)c1ccccc12` (centres unmarked) [drawing 6], the “Percent reduction in viable egg masses” value (Boophilus microplus; 15 ppm) was 0%, the “Percent reduction in viable egg masses” value (Boophilus microplus; 31 ppm) was 72.7% and the “Percent reduction in viable egg masses” value (Boophilus microplus; 62 ppm) was 83.9%. The “Percent reduction in viable egg masses” value (Boophilus microplus; 125 ppm) was 91.9%.

For `CC1(C)C(C(=O)OC(C#N)c2cccc(Oc3ccccc3)c2)C12C=C(Cl)c1ccccc12` (centres unmarked) [drawing 9], the “Insecticidal activity rating, Mosquito Larvae” value ([5]; 0.04 ppm) was 9 (100% mortality), the “Insecticidal activity rating, Mosquito Larvae” value ([5]; 0.4 ppm) was 9 (100% mortality) and the “Insecticidal activity rating, Mosquito Larvae” value ([5]; 1.2 ppm) was 9 (100% mortality). For the same compound, the “Insecticidal activity rating, Tobacco Budworm Eggs” value [6] was 0 (0-4% killed or affected), the “Insecticidal activity rating, Tobacco Budworm Larvae” value ([7]; 10 ppm) was 9 (100% mortality) and the “Insecticidal activity rating, Tobacco Budworm Larvae” value ([7]; 100 ppm) was 9 (100% mortality). For the same compound, the “Insecticidal activity rating, Tobacco Budworm Larvae” value ([7]; 300 ppm) was 9 (100% mortality).

Work on `CC1(C)C(C(=O)OCc2cccc(Oc3ccccc3)c2)C12C=C(Cl)c1ccccc12` (centres unmarked) [drawing 8] yielded a mortality at 100 ppm ([8]; 100 ppm) of 100%.

For `CC1(C)C(C(=O)OCc2cccc(Oc3ccccc3)c2)C12C=C(Cl)c1ccccc12` (centres unmarked) [drawing 12], the “Activity rating, Phosphate Resistant Mites” value ([9]; 100 ppm) was 0 (0-4% killed or affected), the “Activity rating, Phosphate Resistant Mites” value ([9]; 300 ppm) was 8 (86-95% mortality) and the “Insecticidal activity rating, Southern Armyworms” value ([10]; 10 ppm) was 0 (0-4% killed or affected). For the same compound, the “Insecticidal activity rating, Southern Armyworms” value ([10]; 100 ppm) was 9 (100% mortality), the “Insecticidal activity rating, Southern Armyworms” value ([10]; 1000 ppm) was 9 (100% mortality) and the “Insecticidal activity rating, Mexican Bean Beetles” value [11] was 9 (100% mortality).

In the case of `CC1(C)C(C(=O)OCc2cccc(Oc3ccccc3)c2)C12C=C(Cl)c1ccccc12` (centres unmarked) [drawing 10], the “Insecticidal activity rating, Mosquito Larvae” value ([5]; 0.04 ppm) is reported as 9 (100% mortality), the “Insecticidal activity rating, Mosquito Larvae” value ([5]; 0.4 ppm) is reported as 9 (100% mortality) and the “Insecticidal activity rating, Mosquito Larvae” value ([5]; 1.2 ppm) is reported as 9 (100% mortality). The “Insecticidal activity rating, Tobacco Budworm Eggs” value [6] was 0 (0-4% killed or affected), the “Insecticidal activity rating, Tobacco Budworm Larvae” value ([7]; 10 ppm) was 9 (100% mortality) and the “Insecticidal activity rating, Tobacco Budworm Larvae” value ([7]; 100 ppm) was 9 (100% mortality). For the same compound, the “Insecticidal activity rating, Tobacco Budworm Larvae” value ([7]; 300 ppm) was 9 (100% mortality).

`CC1(C)C(C(=O)OC(C#N)c2cccc(Oc3ccccc3)c2)C12C=C(Cl)c1ccccc12` (centres unmarked) [drawing 7] was tested, and the mortality at 0.012 ppm ([8]; 0.012 ppm) was 0%, the mortality at 0.05 ppm ([8]; 0.05 ppm) was 0% and the mortality at 0.78 ppm ([8]; 0.78 ppm) was 80 to 100%.
